Experimental findings from patent US7604955B2, “Immunoglobulin E vaccines and methods of use thereof” (priority 2001, dated 2009) are described below.

In data set [1] the test system is P815 murine mastocytoma cells. Nature of the data set: Chromium release assay: CTL from peptide-immunized BALB/c mice against peptide-contacted P815 cells. The class given is cell-based, mouse. Particulars: for CTL response cytotoxic to target cells displaying the peptide (specific lysis): BALB/c mice immunized with 30 micrograms peptide + OVAp in DOTAP liposomes, targets contacted with same peptide and interferon-gamma. As for the experimental part: The test peptides p 1 and p2 were evaluated for the ability to elicit in mice a cytotoxic T-lymphocyte response to naturally presented immunoglobulin E peptides. Eight-week old BALB/c mice in groups of four were each immunized with 30 micrograms of one of the test peptides p1 or p2, together with 30 micrograms of the co-stimulatory factor OVAp (ovalbumin peptide) (Schimokevitz, 1984, J. Immunol., 133:2067), an oligopeptide consisting of the sequence […](SEQ ID NO. 3), in N-[1-(-2,3-dioleoyloxy)propyl]-N,N,N-trimethylammonium methylsulfate (DOTAP, purchased from Boehringer Mannheim, Indianapolis, Ind.) cationic liposomes. Two weeks after the first immunization, mice in each respective group were immunized a second time with the appropriate test peptide (p1 or p2) that had been used in the initial immunization. Two weeks after the second immunization, 5×10^6 spleen cells were removed from a pool of two to four mice, established in vitro, and re-stimulated with the respective test peptide in vitro for seven days. The cytotoxic T-lymphocytes thus obtained were tested using a standard chromium release assay (Colligan et al. 2002, Current Protocols in Immunology, 3.11) for their ability as effector cells to lyse target cells. The target cells consisted of P815 murine mastocytoma cells that had been contacted with the appropriate test peptide (p1 or p2) and treated overnight with 50 units per milliliter interferon-gamma to facilitate processing of the test peptide. Effector cells (E) and target cells (T) were mixed at different E/T ratios for 4 hours. The specific lysis was determined by the following formula: [(experimental release−spontaneous release)/(maximal release−spontaneous release)]×100.
The test peptide p3 was similarly evaluated for the ability to elicit a cytotoxic T-lymphocyte response in mice to naturally processed and presented immunoglobulin E peptides. […] The specific lysis was determined by the following formula: [(experimental release−spontaneous release)/(maximal release−spontaneous release)]×100.

Data set [2] has as its system LPS and IL-4 stimulated B-lymphocyte cultures. Nature of the data set: Polyclonal IgE production by LPS and IL-4 stimulated B-lymphocyte cultures with CTL (ELISA). The class given is cell-based, mouse. Particulars: CTL from mice immunized with only OVAp in DOTAP liposomes. Here is the method:
In a second experiment, BALB/c splenic B-lymphocytes were enriched by magnetic beads coated with an antibody against the B-lymphocyte-specific cell surface antigen B220. To assess CTL effects on polyclonal IgE production, 3×10^5 normal B-lymphocytes were added to either 3×10^6 p3-activated spleen cells from mice immunized with test peptide p3 together with the co-stimulatory factor OVAp in DOTAP liposomes, or to 3×10^6 p3-activated spleen cells from mice immunized with only the co-stimulatory factor OVAp in DOTAP liposomes as a control. The co-cultures were then stimulated with 20 micrograms per milliliter lipopolysaccharide (LPS) and 250 units per milliliter murine recombinant interleukin-4 (IL-4). Two days later, the culture supernatants were harvested. Immunoglobulin E levels were determined using a commercial double-sandwich ELISA assay (catalogue number 2655KI, PharMingen).

Data set [3] has as its system KLH-specific IgE. The experiment in a line: Allergen-specific (KLH-specific) IgE in vivo by passive cutaneous anaphylaxis (PCA). More on the design: species or system mouse. Particulars: BALB/c mice immunized with only OVAp in liposomes, KLH/alum challenge; pooled blood. As for the experimental part: In a third experiment, the effect of immunoglobulin E peptide immunization on production of allergen-specific IgE in vivo was determined. Adult BALB/c mice (5/group) were immunized twice with either the test peptide p3 or the test peptide p1, together with the co-stimulatory factor OVAp in DOTAP liposomes, or with only the co-stimulatory factor OVAp in DOTAP liposomes. Mice immunized with saline served as control. Seven days after the second immunization, mice were challenged with 1 microgram keyhole limpet hemocyanin (KLH) in 2 milligrams alum intraperitoneally four times at a 10 day interval, and the allergen-specific (KLH-specific) IgE in pooled blood was then determined by passive cutaneous anaphylaxis (PCA) reaction. […] Reduction of allergen-specific PCA correlated directly with the elicitation of IgE peptide-specific cytotoxic T-lymphocytes in vitro (as depicted in FIG. 3B).

Data set [4] concerns murine EL-4 lymphoma cells. The experiment in a line: Chromium release assay: CTL from immunized C57BL/6 mice against p4-contacted EL-4 cells. The class given is cell-based, mouse. Particulars: C57BL/6 mice immunized with p4 with OVAp; p4-contacted EL-4 targets. An excerpt:
Groups consisting each of five C57BL/6 mice were immunized with either 30 micrograms of the test peptide p4 with 30 micrograms of the co-stimulatory factor OVAp, or with 30 micrograms of the test peptide p5 delivered in 30 micrograms DOTAP liposomes. Two weeks after the first immunization, mice in each respective group were immunized a second time with the appropriate test peptide formulation (p4 plus OVAp, or p5 in DOTAP liposomes) that had been used in the initial immunization. Two weeks after the second immunization, 5×10^6 spleen cells were removed from a pool of two to four mice, established in vitro, and re-stimulated with the appropriate test peptide (p4 or p5) in vitro for seven days. The cytotoxic T-lymphocytes thus obtained were tested using a standard chromium release assay for their ability as effector cells to lyse target cells. The target cells consisted of murine EL-4 lymphoma cells, which display the major histocompatibility complex class I molecules H-2K^b and H-2D^b, and that had been contacted with the test peptide p4 and treated overnight with 50 units per milliliter interferon-gamma. Effector cells (E) and target cells (T) were mixed at different E/T ratios for 4 hours. The specific lysis was determined by the following formula: [(experimental release−spontaneous release)/(maximal release−spontaneous release)]×100.

For data set [5], the system named is HLA-A2.1. The experiment in a line: HLA-A2.1 cell surface expression in RMA-S-A2.1 cells (FACS). Particulars: for Increase of HLA-A2.1-specific fluorescence intensity: RMA-S-A2.1 cells, 50 micromoles per liter peptide, 37 C overnight, FITC anti-HLA-A2.1. It is filed as cell-based, human. As for the experimental part: Cells were pooled from the duplicate cultures and about 1×10^6 cells were incubated with 2 micrograms per milliliter fluorescein isothiocyanate-labelled anti-HLA-A2.1 antibody (catalogue number 32294x, PharMingen) at 4° C. for 30 min. Fluorescence-activated cell sorting (FACS) analysis was performed on a FACScan (Becton-Dickinson). About ten thousand events were collected and analyzed by CELLQuest software (version 1.2.2, BD Biosciences).

Square brackets hold non-standard residues; d marks the D form. Ends that are not written are not given here. Vat = not defined here

As to “ISQAVHAAHAEINEAGR [OVAp, co-stimulatory factor]”, in data set [1] (BALB/c mice immunized with OVAp in liposomes only), the “CTL response against p3-treated P815 target cells” value was “did not induce a substantial CTL-response”. In data set [2], the “immunoglobulin E production in vitro” value is on record as “did not decrease immunoglobulin E production”. The “KLH-specific IgE PCA titre” value in data set [3] came to 160.

On to “IYGHILNDV [p2, lie Tyr Gly His li0e Leu Asn Asp Val]”, for which the “CTL response cytotoxic to target cells displaying the peptide (specific lysis)” value in data set [1] was “able to elicit a CTL response”.

In the case of “Ile Gln Leu Tyr Cys Phe Ile Try Gly His Ile Leu Asn Asp Val Ser Val (IQLYCFIYGHILNDVSV; Mouse (Mus musculus)) [p4]”, the “immunoglobulin E-specific CTL response” value in data set [4] was “comparable levels of immunoglobulin E-specific CTL response”.

Turning to LLTVSGAWA [539.8], the “effect of exogenous human beta-2 microglobulin on surface expression of HLA-A2.1” value in data set [5] (RMA-S-A2.1 cells incubated with peptide in presence versus absence of human beta-2 microglobulin) is reported as “did not substantially enhance surface expression of HLA-A2.1”. For the same substance, in data set [5], the “Increase of HLA-A2.1-specific fluorescence intensity” value (“Increase” below) was “one log”.

Consider LYCFIYGHI [p1], for which the “CTL response cytotoxic to target cells displaying the peptide (specific lysis)” value in data set [1] was “able to elicit a CTL response”.

Consider QLPDARHST [539.9], for which the “Increase” value in data set [5] was “one log”.

Regarding TQSPSVFPL [539.10], the “Increase” value in data set [5] is on record as “one log”.

Take “Trp Val Asp Asn Lys Thr Phe Ser Vat (WVDNKTFS[Vat]; reading uncertain; also: printed as Trp Val Asp Asn Lys Thr Phe Ser Vat) [539.12]”: the “Increase” value in data set [5] is reported as “one log”.

For WLSDRTYTC [539.11], in data set [5], the “Increase” value was “one log”.
